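In this assay, cells in 96-well plates receive the compound at five concentrations for 48 hours. Endpoints are linearly interpolated between the surrounding concentrations. TGI marks complete inhibition of growth.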
Key:
Experiment in all cases: NCI-60 cell line screen, 48 h
TK-10 renal = system: TK-10 renal
MCF7 breast = system: MCF7 breast
NCI-H226 lung = system: NCI-H226 lung
MDA-MB-435 = system: MDA-MB-435
IGROV1 ovarian = system: IGROV1 ovarian
CCRF-CEM leukemia = system: CCRF-CEM leukemia
RPMI-8226 leukemia = system: RPMI-8226 leukemia
EKVX NSCLC = system: EKVX NSCLC
HS 578T breast = system: HS 578T breast
HCC-2998 colon = system: HCC-2998 colon
M14 melanoma = system: M14 melanoma
A498 renal = system: A498 renal
HL-60(TB) leukemia = system: HL-60(TB) leukemia
NCI-H522 lung = system: NCI-H522 lung
SF-539 CNS = system: SF-539 CNS
PC-3 prostate = system: PC-3 prostate
U251 CNS = system: U251 CNS
BT-549 breast = system: BT-549 breast
786-0 renal = system: 786-0 renal
K-562 leukemia = system: K-562 leukemia
SK-MEL-28 melanoma = system: SK-MEL-28 melanoma
MALME-3M melanoma = system: MALME-3M melanoma
OVCAR-8 ovarian = system: OVCAR-8 ovarian
NCI-H460 lung = system: NCI-H460 lung
SF-268 CNS = system: SF-268 CNS
NCI/ADR-RES ovarian = system: NCI/ADR-RES ovarian
MDA-MB-231 breast = system: MDA-MB-231 breast
UO-31 renal = system: UO-31 renal
OVCAR-3 ovarian = system: OVCAR-3 ovarian
DU-145 prostate = system: DU-145 prostate
OVCAR-5 ovarian = system: OVCAR-5 ovarian
SK-OV-3 ovarian = system: SK-OV-3 ovarian
T-47D breast = system: T-47D breast
UACC-257 melanoma = system: UACC-257 melanoma
RXF 393 renal = system: RXF 393 renal
SNB-19 CNS = system: SNB-19 CNS
SN12C renal = system: SN12C renal
LOX IMVI melanoma = system: LOX IMVI melanoma
HOP-62 NSCLC = system: HOP-62 NSCLC
SK-MEL-2 melanoma = system: SK-MEL-2 melanoma
HCT-15 colon = system: HCT-15 colon
CAKI-1 renal = system: CAKI-1 renal
MOLT-4 leukemia = system: MOLT-4 leukemia
HOP-92 NSCLC = system: HOP-92 NSCLC
HCT-116 colon = system: HCT-116 colon
SK-MEL-5 melanoma = system: SK-MEL-5 melanoma
NCI-H23 lung = system: NCI-H23 lung
SW-620 colon = system: SW-620 colon
MDA-N = system: MDA-N
SF-295 CNS = system: SF-295 CNS
UACC-62 melanoma = system: UACC-62 melanoma
SR leukemia = system: SR leukemia
SNB-75 CNS = system: SNB-75 CNS
HT29 colon = system: HT29 colon
KM12 colon = system: KM12 colon
OVCAR-4 ovarian = system: OVCAR-4 ovarian
ACHN renal = system: ACHN renal
A549 NSCLC = system: A549 NSCLC
COLO 205 colon = system: COLO 205 colon

N#Cc1c(N2CCCC2)ncn(-c2ccccc2)c1=S
TGI (TK-10 renal): > 100 µM
TGI (MCF7 breast): > 100 µM
TGI (NCI-H226 lung): > 100 µM
TGI (MDA-MB-435): > 100 µM
TGI (IGROV1 ovarian): > 100 µM
TGI (CCRF-CEM leukemia): > 100 µM
TGI (RPMI-8226 leukemia): > 100 µM
TGI (EKVX NSCLC): > 100 µM
TGI (HS 578T breast): > 100 µM
TGI (HCC-2998 colon): > 100 µM
TGI (M14 melanoma): > 100 µM
TGI (A498 renal): > 100 µM
TGI (HL-60(TB) leukemia): > 100 µM
TGI (NCI-H522 lung): > 100 µM
TGI (SF-539 CNS): > 100 µM
TGI (PC-3 prostate): > 100 µM
TGI (U251 CNS): > 100 µM
TGI (BT-549 breast): > 100 µM
TGI (786-0 renal): > 100 µM
TGI (K-562 leukemia): > 100 µM
TGI (SK-MEL-28 melanoma): > 100 µM
TGI (MALME-3M melanoma): > 100 µM
TGI (OVCAR-8 ovarian): > 100 µM
TGI (NCI-H460 lung): > 100 µM
TGI (SF-268 CNS): > 100 µM
TGI (NCI/ADR-RES ovarian): > 100 µM
TGI (MDA-MB-231 breast): > 100 µM
TGI (UO-31 renal): > 100 µM
TGI (OVCAR-3 ovarian): > 100 µM
TGI (DU-145 prostate): > 100 µM
TGI (OVCAR-5 ovarian): > 100 µM
TGI (SK-OV-3 ovarian): > 100 µM
TGI (T-47D breast): > 100 µM
TGI (UACC-257 melanoma): > 100 µM
TGI (RXF 393 renal): > 100 µM
TGI (SNB-19 CNS): > 100 µM
TGI (SN12C renal): > 100 µM
TGI (LOX IMVI melanoma): > 100 µM
TGI (HOP-62 NSCLC): > 100 µM
TGI (SK-MEL-2 melanoma): > 100 µM
TGI (HCT-15 colon): > 100 µM
TGI (CAKI-1 renal): > 100 µM
TGI (MOLT-4 leukemia): > 100 µM
TGI (HOP-92 NSCLC): > 100 µM
TGI (HCT-116 colon): > 100 µM
TGI (SK-MEL-5 melanoma): > 100 µM
TGI (NCI-H23 lung): > 100 µM
TGI (SW-620 colon): > 100 µM
TGI (MDA-N): > 100 µM
TGI (SF-295 CNS): > 100 µM
TGI (UACC-62 melanoma): 69.3 µM
TGI (SR leukemia): > 100 µM
TGI (SNB-75 CNS): > 100 µM
TGI (HT29 colon): > 100 µM
TGI (KM12 colon): > 100 µM
TGI (OVCAR-4 ovarian): > 100 µM
TGI (ACHN renal): > 100 µM
TGI (A549 NSCLC): > 100 µM
TGI (COLO 205 colon): > 100 µM

C=CCN1C(N)=C(C#N)C(C#N)(C#N)C1CCC (configuration not stated)
TGI (TK-10 renal): > 100 µM
TGI (MCF7 breast): > 100 µM
TGI (NCI-H226 lung): > 100 µM
TGI (MDA-MB-435): > 100 µM
TGI (IGROV1 ovarian): > 100 µM
TGI (CCRF-CEM leukemia): > 100 µM
TGI (RPMI-8226 leukemia): > 100 µM
TGI (EKVX NSCLC): > 100 µM
TGI (HS 578T breast): > 100 µM
TGI (HCC-2998 colon): > 100 µM
TGI (M14 melanoma): > 100 µM
TGI (A498 renal): > 100 µM
TGI (HL-60(TB) leukemia): > 100 µM
TGI (NCI-H522 lung): > 100 µM
TGI (SF-539 CNS): > 100 µM
TGI (PC-3 prostate): > 100 µM
TGI (U251 CNS): > 100 µM
TGI (BT-549 breast): > 100 µM
TGI (786-0 renal): > 100 µM
TGI (K-562 leukemia): > 100 µM
TGI (MALME-3M melanoma): > 100 µM
TGI (OVCAR-8 ovarian): > 100 µM
TGI (NCI-H460 lung): > 100 µM
TGI (SF-268 CNS): > 100 µM
TGI (NCI/ADR-RES ovarian): > 100 µM
TGI (MDA-MB-231 breast): > 100 µM
TGI (UO-31 renal): > 100 µM
TGI (OVCAR-3 ovarian): > 100 µM
TGI (DU-145 prostate): > 100 µM
TGI (OVCAR-5 ovarian): > 100 µM
TGI (SK-OV-3 ovarian): > 100 µM
TGI (T-47D breast): > 100 µM
TGI (UACC-257 melanoma): > 100 µM
TGI (RXF 393 renal): > 100 µM
TGI (SNB-19 CNS): > 100 µM
TGI (SN12C renal): > 100 µM
TGI (LOX IMVI melanoma): > 100 µM
TGI (HOP-62 NSCLC): > 100 µM
TGI (SK-MEL-2 melanoma): > 100 µM
TGI (HCT-15 colon): > 100 µM
TGI (CAKI-1 renal): > 100 µM
TGI (MOLT-4 leukemia): > 100 µM
TGI (HOP-92 NSCLC): > 100 µM
TGI (HCT-116 colon): > 100 µM
TGI (SK-MEL-5 melanoma): > 100 µM
TGI (NCI-H23 lung): > 100 µM
TGI (SW-620 colon): > 100 µM
TGI (MDA-N): > 100 µM
TGI (SF-295 CNS): > 100 µM
TGI (UACC-62 melanoma): > 100 µM
TGI (SR leukemia): > 100 µM
TGI (SNB-75 CNS): > 100 µM
TGI (HT29 colon): > 100 µM
TGI (KM12 colon): > 100 µM
TGI (OVCAR-4 ovarian): > 100 µM
TGI (ACHN renal): > 100 µM
TGI (A549 NSCLC): > 100 µM
TGI (COLO 205 colon): > 100 µM
